Experimental data taken from ChEMBL document CHEMBL1909533, “Micelles catalyzed chemoselective synthesis 'in water' and biological evaluation of oxygen containing hetero-1,4-naphthoquinones as potential antifungal agents” (2011).
Converted amounts (≈) assume the structure as drawn.

Columns and labels:
Type in all cases: functional
Candida albicans [1] = assay: Antifungal activity against Candida albicans by broth microdilution method
Cryptococcus neoformans [2] = assay: Antifungal activity against Cryptococcus neoformans by broth microdilution method
Sporothrix schenckii = assay: Antifungal activity against Sporothrix schenckii by broth microdilution method
[3] = tested on: Trichophyton mentagrophytes; assay: Antifungal activity against Trichophyton mentagrophytes by broth microdilution method
Aspergillus fumigatus = assay: Antifungal activity against Aspergillus fumigatus by broth microdilution method
Candida parapsilosis [4] = assay: Antifungal activity against Candida parapsilosis by broth microdilution method; settings: Lodderomyces parapsilosis
Escherichia coli = assay: Antibacterial activity against Escherichia coli by micro-broth dilution method
Staphylococcus aureus = assay: Antibacterial activity against Staphylococcus aureus ATCC 25923 by micro-broth dilution method
Klebsiella pneumoniae = assay: Antibacterial activity against Klebsiella pneumoniae ATCC 27736 by micro-broth dilution method
Pseudomonas aeruginosa = assay: Antibacterial activity against Pseudomonas aeruginosa by micro-broth dilution method
Candida parapsilosis [5] = assay: Ratio of 2-Chloro-3-phenylsulfanyl-[1,4]naphthoquinone MIC50 to compound MIC50 for Candida parapsilosis
Candida parapsilosis [6] = assay: Ratio of 2-chloro-3-(4-hydroxyphenylamino)naphthalene-1,4-dione MIC50 to compound MIC50 for Candida parapsilosis
Candida albicans [7] = assay: Ratio of miconazole MIC50 to compound MIC50 for Candida albicans
[8] = tested on: Trichophyton mentagrophytes; assay: Ratio of fluconazole MIC50 to compound MIC50 for Trichophyton mentagrophytes
[9] = tested on: Trichophyton mentagrophytes; assay: Ratio of amphotericin-B MIC50 to compound MIC50 for Trichophyton mentagrophytes
Cryptococcus neoformans [10] = assay: Ratio of miconazole MIC50 to compound MIC50 for Cryptococcus neoformans

Compound | MIC (Candida albicans [1]) | MIC (Cryptococcus neoformans [2]) | MIC (Sporothrix schenckii) | MIC [3] | MIC (Aspergillus fumigatus) | MIC (Candida parapsilosis [4]) | MIC (Escherichia coli) | MIC (Staphylococcus aureus) | MIC (Klebsiella pneumoniae) | MIC (Pseudomonas aeruginosa) | Ratio (Candida parapsilosis [5]) | Ratio (Candida parapsilosis [6]) | Ratio (Candida albicans [7]) | Ratio [8] | Ratio [9] | Ratio (Cryptococcus neoformans [10])
Cc1cc2c(cc1OC1=C(O)C(=O)c3ccccc3C1=O)C(=O)c1ccccc1C2=O [NEWBOULDIAQUINONE A] | 4.88 µg/mL (≈ 11.9 µM) | – | – | – | – | – | – | – | – | – | – | – | – | – | – | –
Cc1cc(C)cc(OC2=C(Cl)C(=O)c3ccccc3C2=O)c1 | 12.5 µg/mL (≈ 40 µM) | 12.5 µg/mL (≈ 40 µM) | 1.56 µg/mL (≈ 4.99 µM) | 1.56 µg/mL (≈ 4.99 µM) | 50 µg/mL (≈ 160 µM) | 3.12 µg/mL (≈ 9.98 µM) | 50 µg/mL (≈ 160 µM) | 25 µg/mL (≈ 79.9 µM) | > 50 µg/mL | > 50 µg/mL | 2 | 2 | – | – | – | –
O=C1C(Cl)=C(Nc2ccc(O)cc2)C(=O)c2ccccc21 | 1.56 µg/mL (≈ 5.2 µM) | 0.78 µg/mL (≈ 2.6 µM) | 1.56 µg/mL (≈ 5.2 µM) | 1.56 µg/mL (≈ 5.2 µM) | 3.12 µg/mL (≈ 10.4 µM) | 6.25 µg/mL (≈ 20.9 µM) | – | – | – | – | – | – | – | – | – | –
O=C1C(Cl)=C(Oc2ccccc2OC2=C(Cl)C(=O)c3ccccc3C2=O)C(=O)c2ccccc21 | 50 µg/mL (≈ 102 µM) | > 50 µg/mL | 25 µg/mL (≈ 50.9 µM) | 50 µg/mL (≈ 102 µM) | > 50 µg/mL | 50 µg/mL (≈ 102 µM) | > 50 µg/mL | > 50 µg/mL | > 50 µg/mL | > 50 µg/mL | – | – | – | – | – | –
COc1ccc(OC2=C(Cl)C(=O)c3ccccc3C2=O)cc1 | 12.5 µg/mL (≈ 39.7 µM) | 12.5 µg/mL (≈ 39.7 µM) | 1.56 µg/mL (≈ 4.96 µM) | 1.56 µg/mL (≈ 4.96 µM) | 50 µg/mL (≈ 159 µM) | 6.25 µg/mL (≈ 19.9 µM) | > 50 µg/mL | 50 µg/mL (≈ 159 µM) | > 50 µg/mL | > 50 µg/mL | – | – | 2 | – | – | –
O=c1c2oc3ccccc3oc=2c(=O)c2ccccc12 | 6.25 µg/mL (≈ 23.7 µM) | 12.5 µg/mL (≈ 47.3 µM) | 0.78 µg/mL (≈ 2.95 µM) | 1.56 µg/mL (≈ 5.9 µM) | 25 µg/mL (≈ 94.6 µM) | 3.12 µg/mL (≈ 11.8 µM) | 50 µg/mL (≈ 189 µM) | 25 µg/mL (≈ 94.6 µM) | > 50 µg/mL | > 50 µg/mL | 2 | 2 | 4 | – | – | –
OC(Cn1cncn1)(Cn1cncn1)c1ccc(F)cc1F [FLUCONAZOLE] | 1 µg/mL (≈ 3.27 µM) | 0.5 µg/mL (≈ 1.63 µM) | 2 µg/mL (≈ 6.53 µM) | 1.56 µg/mL (≈ 5.09 µM) | 2 µg/mL (≈ 6.53 µM) | 1 µg/mL (≈ 3.27 µM) | – | – | – | – | – | – | – | – | – | –
O=C1C=C(Sc2ccccc2)C(=O)c2ccccc21 | 12.5 µg/mL (≈ 46.9 µM) | 1.56 µg/mL (≈ 5.86 µM) | – | 0.78 µg/mL (≈ 2.93 µM) | 25 µg/mL (≈ 93.9 µM) | – | – | – | – | – | – | – | – | – | – | –
C[C@@H]1[C@H](O)[C@@H](C)/C=C/C=C/C=C/C=C/C=C/C=C/C=C/[C@H](O[C@@H]2O[C@H](C)[C@@H](O)[C@H](N)[C@@H]2O)C[C@@H]2O[C@](O)(C[C@@H](O)C[C@@H](O)[C@H](O)CC[C@@H](O)C[C@@H](O)CC(=O)O[C@H]1C)C[C@H](O)[C@H]2C(=O)O [AMPHOTERICIN B] | 0.39 µg/mL (≈ 0.422 µM) | 0.78 µg/mL (≈ 0.844 µM) | – | 1.56 µg/mL (≈ 1.69 µM) | – | – | – | – | – | – | – | – | – | – | – | –
Cc1ccc(OC2=C(Cl)C(=O)c3ccccc3C2=O)cc1 | 6.25 µg/mL (≈ 20.9 µM) | 12.5 µg/mL (≈ 41.8 µM) | 0.78 µg/mL (≈ 2.61 µM) | 1.56 µg/mL (≈ 5.22 µM) | 25 µg/mL (≈ 83.7 µM) | 3.12 µg/mL (≈ 10.4 µM) | 25 µg/mL (≈ 83.7 µM) | 12.5 µg/mL (≈ 41.8 µM) | > 50 µg/mL | > 50 µg/mL | 2 | 2 | 4 | – | – | –
O=C1C(Cl)=C(Oc2ccc(Cl)cc2)C(=O)c2ccccc21 | 12.5 µg/mL (≈ 39.2 µM) | 12.5 µg/mL (≈ 39.2 µM) | 1.56 µg/mL (≈ 4.89 µM) | 1.56 µg/mL (≈ 4.89 µM) | > 50 µg/mL | 6.25 µg/mL (≈ 19.6 µM) | > 50 µg/mL | 50 µg/mL (≈ 157 µM) | > 50 µg/mL | > 50 µg/mL | – | – | 2 | – | – | –
O=C1C(Cl)=C(Oc2cccc3ccccc23)C(=O)c2ccccc21 | 12.5 µg/mL (≈ 37.3 µM) | 25 µg/mL (≈ 74.7 µM) | 1.56 µg/mL (≈ 4.66 µM) | 1.56 µg/mL (≈ 4.66 µM) | > 50 µg/mL | 12.5 µg/mL (≈ 37.3 µM) | 50 µg/mL (≈ 149 µM) | 25 µg/mL (≈ 74.7 µM) | > 50 µg/mL | > 50 µg/mL | – | – | 2 | – | – | –
O=C1C(Cl)=C(Oc2ccc3ccccc3c2)C(=O)c2ccccc21 | > 50 µg/mL | > 50 µg/mL | > 50 µg/mL | 50 µg/mL (≈ 149 µM) | 50 µg/mL (≈ 149 µM) | > 50 µg/mL | > 50 µg/mL | > 50 µg/mL | > 50 µg/mL | > 50 µg/mL | – | – | – | – | – | –
GENTAMICIN | – | – | – | – | – | – | 0.18 µg/mL | 0.78 µg/mL | 0.78 µg/mL | 0.39 µg/mL | – | – | – | – | – | –
Cc1ccc(OC2=C(Sc3ccccc3)C(=O)c3ccccc3C2=O)cc1 | 25 µg/mL (≈ 67.1 µM) | 12.5 µg/mL (≈ 33.6 µM) | 1.56 µg/mL (≈ 4.19 µM) | 0.78 µg/mL (≈ 2.09 µM) | > 50 µg/mL | 12.5 µg/mL (≈ 33.6 µM) | > 50 µg/mL | 25 µg/mL (≈ 67.1 µM) | > 50 µg/mL | > 50 µg/mL | – | – | – | 2 | 2 | –
Cc1ccc(OC2=C(Sc3ccc(C)cc3)C(=O)c3ccccc3C2=O)cc1 | 25 µg/mL (≈ 64.7 µM) | 12.5 µg/mL (≈ 32.3 µM) | 3.12 µg/mL (≈ 8.07 µM) | 1.56 µg/mL (≈ 4.04 µM) | > 50 µg/mL | 25 µg/mL (≈ 64.7 µM) | > 50 µg/mL | 12.5 µg/mL (≈ 32.3 µM) | > 50 µg/mL | > 50 µg/mL | – | – | – | – | – | –
NYSTATIN | 7.8 µg/mL | 3.5 µg/mL | 13.2 µg/mL | – | – | – | – | – | – | – | – | – | – | – | – | –
NCC[C@H](O)C(=O)N[C@@H]1C[C@H](N)[C@@H](O[C@H]2O[C@H](CN)[C@@H](O)[C@H](O)[C@H]2O)[C@H](O)[C@H]1O[C@H]1O[C@H](CO)[C@@H](O)[C@H](N)[C@H]1O [AMIKACIN] | – | – | – | – | – | – | 1 µg/mL (≈ 1.71 µM) | 16 µg/mL (≈ 27.3 µM) | 2 µg/mL (≈ 3.42 µM) | 1 µg/mL (≈ 1.71 µM) | – | – | – | – | – | –
NC[C@H]1O[C@H](O[C@H]2[C@H](O)[C@@H](O[C@H]3O[C@H](CO)[C@@H](O)[C@H](N)[C@H]3O)[C@H](N)C[C@@H]2N)[C@H](N)C[C@@H]1O [TOBRAMYCIN] | – | – | – | – | – | – | 0.5 µg/mL (≈ 1.07 µM) | 0.25 µg/mL (≈ 0.535 µM) | 4 µg/mL (≈ 8.56 µM) | 1 µg/mL (≈ 2.14 µM) | – | – | – | – | – | –
NC[C@H]1O[C@H](O[C@H]2[C@H](O)[C@@H](O[C@H]3O[C@H](CO)[C@@H](O)[C@H](N)[C@H]3O)[C@H](N)C[C@@H]2N)[C@H](O)[C@@H](O)[C@@H]1O [KANAMYCIN] | – | – | – | – | – | – | 16 µg/mL (≈ 33 µM) | 2 µg/mL (≈ 4.13 µM) | > 128 µg/mL | 32 µg/mL (≈ 66 µM) | – | – | – | – | – | –
O=C1C(Cl)=C(Oc2ccccc2)C(=O)c2ccccc21 | 12.5 µg/mL (≈ 43.9 µM) | 6.25 µg/mL (≈ 22 µM) | 3.12 µg/mL (≈ 11 µM) | 0.78 µg/mL (≈ 2.74 µM) | 50 µg/mL (≈ 176 µM) | 12.5 µg/mL (≈ 43.9 µM) | > 50 µg/mL | 50 µg/mL (≈ 176 µM) | > 50 µg/mL | > 50 µg/mL | – | – | – | 2 | 2 | 2
Clc1ccc(COC(Cn2ccnc2)c2ccc(Cl)cc2Cl)c(Cl)c1 (stereo unspecified) [MICONAZOLE] | 25 µg/mL (≈ 60.1 µM) | 12.5 µg/mL (≈ 30 µM) | – | < 0.78 µg/mL | 12.5 µg/mL (≈ 30 µM) | – | – | – | – | – | – | – | – | – | – | –
Cc1ccc(OC2=C(Nc3ccccc3)C(=O)c3ccccc3C2=O)cc1 | 12.5 µg/mL (≈ 35.2 µM) | 12.5 µg/mL (≈ 35.2 µM) | 1.56 µg/mL (≈ 4.39 µM) | 0.78 µg/mL (≈ 2.19 µM) | 50 µg/mL (≈ 141 µM) | 12.5 µg/mL (≈ 35.2 µM) | 50 µg/mL (≈ 141 µM) | 50 µg/mL (≈ 141 µM) | > 50 µg/mL | > 50 µg/mL | – | – | – | 2 | 2 | –
